Reference: article PMC9995496, “A screen for MeCP2-TBL1 interaction inhibitors using a luminescence-based assay” (Scientific Reports, 2023)

Target: T1, MeCP2-TBL1 interaction (MeCP2-SmBiT / TBL1-LgBiT) (Mus musculus, UniProt Q9QXE7)
T1 construct: expressed in transfected cells; crude lysate used as a cell-free assay
T1 sequence (Q9QXE7 166-527): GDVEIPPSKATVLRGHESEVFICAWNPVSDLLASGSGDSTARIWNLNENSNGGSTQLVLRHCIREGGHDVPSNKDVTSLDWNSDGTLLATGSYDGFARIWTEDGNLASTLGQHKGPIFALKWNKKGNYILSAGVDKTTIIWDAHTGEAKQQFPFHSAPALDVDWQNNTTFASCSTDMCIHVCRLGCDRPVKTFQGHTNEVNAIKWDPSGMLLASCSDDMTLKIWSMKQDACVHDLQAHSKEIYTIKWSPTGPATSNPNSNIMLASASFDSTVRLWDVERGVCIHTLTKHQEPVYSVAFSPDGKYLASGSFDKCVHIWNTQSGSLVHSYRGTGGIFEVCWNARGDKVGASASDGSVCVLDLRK
Experiment: MeCP2-TBL1 NanoLuc luciferase complementation assay (cell-free, extracts of transfected HEK293 cells);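 further: each compound tested at 20 µM final concentration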
Format: binding, human
In short: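 Cell-free split NanoLuc: lysate of HEK293 cells co-expressing the MeCP2 C-terminal half-SmBiT and TBL1 WD domain-LgBiT, mixed 1:1 with furimazine. After 30 min at room temperature, luminescence was plate-median normalized.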

[1] = primary screen of the Asinex library, sheet "Sargen output Asinex library", one well per compound
[2] = primary screen of the Asinex library, sheet "Sargen output Asinex library", one well per compound, Batch Ref. 1
[3] = primary screen of Asinex library, single well per compound

## CC(=O)NC(F)(Cc1ccccc1)C(=O)N1CCC(Cc2cccc3cccnc23)CC1 (centres unmarked) [BDH_32336432]
[1]
  Inhibition percent: 15.90%

## COc1ccc(C2(C(=O)N3CCCCC3CCNC(=O)c3ccccc3)CCCC2)cc1 (centres unmarked) [BDH_32336950]
[2]
  Inhibition percent: 6.01%

## O=C(c1ccccc1Cn1ccnc1)N1CCCC(c2cncc(Oc3ccccc3)n2)C1 (centres unmarked) [BDH_32338420]
[2]
  Inhibition percent: 3.75%

## Cc1nccn1Cc1ccccc1C(=O)N1CCCC(Cc2cccc3cccnc23)C1 (centres unmarked) [BDH_32339247]
[1]
  Inhibition percent: -0.91%

## Cc1nccn1Cc1ccccc1C(=O)N1CCCC(Cc2cccc3cccnc23)CC1 (centres unmarked) [BDH_32339298]
[1]
  Inhibition percent: 3.41%

## Cc1nccn1Cc1ccccc1C(=O)N1CCCC(Cc2cccc3ccncc23)CC1 (centres unmarked) [BDH_32339307]
[3]
  Inhibition percent: -0.56

## O=C(c1cccc(Cn2ccnc2)c1)N1CCCC(c2nccnc2Oc2ccccc2)C1 (centres unmarked) [BDH_32339912]
[1]
  Inhibition percent: -0.06%

## C[C@]12C[C@@H](Cc3ccccc3)N(C(=O)c3cccc(Cn4ccnc4)c3)[C@H]1CCCC(=O)N2 [BDH_32339936]
[3]
  Inhibition percent: 5.72

## Cc1cccc(Oc2cncc(C3CCCN(C(=O)c4cccc(-n5cnnc5)c4)C3)n2)c1 (centres unmarked) [BDH_32340252]
[1]
  Inhibition percent: -3.70%

## O=C(c1cccc(-n2cnnc2)c1)N1CCOCC(Cc2cccc3occc23)C1 (centres unmarked) [BDH_32340409]
[1]
  Inhibition percent: -8.70%

## O=C(c1ccccc1Cn1cccn1)N1CCCC1c1cncc(Cc2cccc(F)c2)n1 (centres unmarked) [BDH_32340865]
[1]
  Inhibition percent: 0.32%

## O=C(N1CCC(Cc2ccc3ncccc3c2)CC1)C1(c2ccccc2)CCOCC1 [BDH_32341682]
[3]
  Inhibition percent: 1.41

## O=C(N1CCC(Cc2cccc3cccnc23)CC1)C1(c2ccccc2)CCOCC1 [BDH_32341683]
[3]
  Inhibition percent: 6.68

## COc1ccc(C(=O)N2CCCC(Cc3ccccn3)C2)cc1NCc1cccnc1 (centres unmarked) [BDH_32341951]
[3]
  Inhibition percent: -2.98

## O=C(c1ccccc1CN1CCOCC1)N1CCCC(Cc2cnc3ccccc3c2)CC1 (centres unmarked) [BDH_32342370]
[1]
  Inhibition percent: -1.09%

## O=C(c1ccccc1CN1CCCC1)N1CCC2(CC1)COC(Cc1cccc(F)c1)C2 (centres unmarked) [BDH_32342523]
[1]
  Inhibition percent: 5.16%

## Cc1ccc(C2(C(=O)N3CCC4(CC3)CC(Oc3ccccc3)CO4)CCOCC2)cc1 (centres unmarked) [BDH_32343765]
[3]
  Inhibition percent: 1.12

## COc1ccc(C2(C(=O)N3CCC(Cc4ccc5ncccc5c4)CC3)CCOCC2)cc1 [BDH_32344075]
[1]
  Inhibition percent: -2.33%

## COc1ccc(C2(C(=O)N3CCC(Cc4cccc5cccnc45)CC3)CCOCC2)cc1 [BDH_32344076]
[1]
  Inhibition percent: 3.92%

## CN(C)c1cncc(C2CCCN2C(=O)c2ccccc2OCCN2CCOCC2)n1 (centres unmarked) [BDH_32345043]
[3]
  Inhibition percent: 1.00

## CN1CCN(c2cc(C(=O)N3CCCCC3CCNC(=O)c3ccccc3)ccn2)CC1 (centres unmarked) [BDH_32345153]
[3]
  Inhibition percent: -1.36

## c1ccc(COc2cccc(CN3CCOCC(Cc4ccc5nccn5n4)C3)c2)nc1 (centres unmarked) [BDH_32351403]
[1]
  Inhibition percent: -0.41%

## O=C1CCCC[C@]2(CN(Cc3ccnc(N4CCOCC4)n3)C[C@H]2c2cccc(F)c2)N1 [BDH_32352634]
[1]
  Inhibition percent: -4.25%

## O=C1CCCC[C@]2(CN(Cc3ccnc(N4CCCCC4)n3)C[C@H]2c2ccccc2)N1 [BDH_32353018]
[3]
  Inhibition percent: -0.90

## O=C1CCCC[C@]2(CN(Cc3ccnc(N4CCCCC4)n3)C[C@H]2c2cccc(F)c2)N1 [BDH_32353019]
[2]
  Inhibition percent: 1.21%

## O=C(c1ccccc1OCCN1CCOCC1)N1CCCC(Cc2ccnc3ccccc23)CC1 (centres unmarked) [BDH_32353619]
[1]
  Inhibition percent: -1.00%

## O=C(c1ccccc1OCCN1CCOCC1)N1CCCC(Cc2cccc3cccnc23)CC1 (centres unmarked) [BDH_32353622]
[2]
  Inhibition percent: 2.11%

## O=C(c1ccccc1CN1CCCC1)N1CCCC(c2cccc(Cc3ccccc3F)n2)C1 (centres unmarked) [BDH_32353816]
[1]
  Inhibition percent: 1.91%

## CC(C)(NC(=O)c1cccc(F)c1)C(=O)N1CCC(c2cccc(Cc3ccccc3)n2)CC1 [BDH_32354126]
[1]
  Inhibition percent: -0.56%

## Cc1nonc1COc1ccccc1C(=O)N1CCCC(Cc2ccnc3ccccc23)CC1 (centres unmarked) [BDH_32354216]
[1]
  Inhibition percent: -0.73%

## Cc1nonc1COc1ccccc1C(=O)N1CCCC(Cc2cccc3cccnc23)CC1 (centres unmarked) [BDH_32354219]
[1]
  Inhibition percent: 4.81%

## Cc1noc(C)c1COc1cccc(C(=O)N2CCCC(Cc3cccc4cnccc34)CC2)c1 (centres unmarked) [BDH_32354458]
[2]
  Inhibition percent: 1.54%

## CN1CCC(Cc2cccc(F)c2)(C(=O)N2CCCC(Cc3cccc4ncccc34)C2)CC1 (centres unmarked) [BDH_32354496]
[1]
  Inhibition percent: -4.55%

## CN1CCC(Cc2cccc(F)c2)(C(=O)N2CCC(Cc3cccc4cccnc34)CC2)CC1 [BDH_32354499]
[1]
  Inhibition percent: -1.74%

## CN1CCC(Cc2ccc(F)cc2)(C(=O)N2CCC(Cc3cccc4cccnc34)CC2)CC1 [BDH_32354505]
[1]
  Inhibition percent: -1.95%

## CC(C)(NC(=O)COc1ccccc1)C(=O)N1CCC(Cc2cccc3ncccc23)CC1 [BDH_32354908]
[3]
  Inhibition percent: -2.23

## Cc1nonc1COc1ccccc1C(=O)N1CCCC(Cc2ccc3ccncc3c2)CC1 (centres unmarked) [BDH_32355894]
[2]
  Inhibition percent: 5.62%

## Cc1ccc(Oc2ncccc2C(=O)N2CCC(c3cccc(Cc4ccccc4)n3)CC2)cn1 [BDH_32356013]
[2]
  Inhibition percent: 10.27%

## O=C(CC1CCN(C(=O)C2(c3ccc(F)cc3)CCCC2)CC1)Nc1ccc2nccnc2c1 [BDH_32356175]
[1]
  Inhibition percent: 0.45%

## Cc1nonc1COc1ccccc1C(=O)N1C2CCC1CC(Cc1cnc3ccccc3c1)C2 (centres unmarked) [BDH_32356179]
[3]
  Inhibition percent: 3.35

## Cc1cc(C)n(-c2cccc(C(=O)N3CCCC(c4cncc(Oc5ccccc5)n4)C3)c2)n1 (centres unmarked) [BDH_32356802]
[3]
  Inhibition percent: -1.24

## O=C(NCCC1CCCCN1C(=O)c1ccnc(Oc2cccc(F)c2)c1)c1ccccc1 (centres unmarked) [BDH_32356851]
[1]
  Inhibition percent: -4.31%

## CN1CCCC(CCCc2cnccn2)(C(=O)N2CCC(Cc3cccc4cccnc34)CC2)C1 (centres unmarked) [BDH_32356918]
[1]
  Inhibition percent: -2.36%

## O=C(c1cccc(Nc2ncccn2)c1)N1C2CCC1CC(Cc1ccc3ccncc3c1)C2 (centres unmarked) [BDH_32356948]
[3]
  Inhibition percent: 3.03

## Cc1ccc(Oc2cc(C)nc(C3CCCCN3C(=O)c3ccnc(-c4cnn(C)c4)c3)n2)cc1 (centres unmarked) [BDH_32357088]
[1]
  Inhibition percent: 0.88%

## O=C1OC2(CCCN(Cc3ccccc3OCc3ccccn3)CC2)CN1c1ccc(F)cc1 (centres unmarked) [BDH_32357695]
[3]
  Inhibition percent: 1.61

## O=C(c1ccccc1OCCN1CCOCC1)N1CCCC(Cc2ccc3ncccc3c2)C1 (centres unmarked) [BDH_32358044]
[1]
  Inhibition percent: -2.19%

## Cc1cccc(Oc2cncc(C3CCCN(C(=O)c4ccnc(N5CCN(C)CC5)c4)C3)n2)c1 (centres unmarked) [BDH_32358106]
[2]
  Inhibition percent: 0.42%

## Cc1cc(Oc2ccccc2)nc(C2CCN(C(=O)c3ccnc(N4CCN(C)CC4)c3)CC2)n1 [BDH_32358107]
[1]
  Inhibition percent: -1.62%

## O=C1CCCC[C@]2(CN(Cc3ccccc3OCc3ccccn3)C[C@H]2c2ccc(F)cc2)N1 [BDH_32358404]
[1]
  Inhibition percent: 1.07%

## O=C1CCCN1CCOc1cccc(C(=O)N2CCCC(Cc3ccnc4ccccc34)CC2)c1 (centres unmarked) [BDH_32358595]
[3]
  Inhibition percent: -2.39

## O=C1CCCN1CCOc1cccc(C(=O)N2CCCC(Cc3cnc4ccccc4c3)CC2)c1 (centres unmarked) [BDH_32358596]
[1]
  Inhibition percent: -12.20%

## O=C1CCCN1CCOc1ccccc1C(=O)N1CCCC(Cc2ccc3ncccc3c2)CC1 (centres unmarked) [BDH_32358602]
[1]
  Inhibition percent: -0.32%

## COc1ccc(C2(C(=O)N3CCCC(Cc4cccc5ccncc45)CC3)CCOCC2)cc1 (centres unmarked) [BDH_32359024]
[1]
  Inhibition percent: 2.06%

## CN(C)CC(=O)N1CCCC(C)(C(=O)N2CCC(c3cccc(Cc4ccccc4)n3)CC2)C1 (centres unmarked) [BDH_32359557]
[2]
  Inhibition percent: 2.74%

## Fc1cccc(COc2ccccc2CN2CCOCC(Cc3cn4ccnc4cn3)C2)c1 (centres unmarked) [BDH_32359710]
[1]
  Inhibition percent: -1.22%

## COc1ccccc1[C@@H]1CN(Cc2cccc(Oc3ncccn3)c2)C[C@]12CCCCC(=O)N2 [BDH_32359781]
[1]
  Inhibition percent: -0.97%

## Cc1cc(Oc2ccccc2)nc(C2CCN(C(=O)C3(C)CCN(c4ncccn4)CC3)CC2)n1 [BDH_32359876]
[1]
  Inhibition percent: 3.25%

## COc1ccc(C(=O)N2CCCC(Cc3cccc4ncccc34)C2)cc1NCc1ccncc1 (centres unmarked) [BDH_32359947]
[3]
  Inhibition percent: -3.52

## COc1ccc(C(=O)N2CCCC(Cc3ccc4ncccc4c3)C2)cc1NCc1ccncc1 (centres unmarked) [BDH_32359951]
[1]
  Inhibition percent: -4.50%

## Cc1ccc(Oc2cccc(C3CN(C(=O)c4cccc(Cn5ccnc5)c4)CCO3)n2)cc1 (centres unmarked) [BDH_32360064]
[2]
  Inhibition percent: 8.15%

## O=C1CCCN1CCOc1cccc(C(=O)N2CCCC(Cc3cccc4cnccc34)CC2)c1 (centres unmarked) [BDH_32360253]
[1]
  Inhibition percent: 1.74%

## Cc1cccc(Oc2cncc(C3CCCN(C(=O)c4cccc(Cn5ccnc5C)c4)C3)n2)c1 (centres unmarked) [BDH_32360361]
[1]
  Inhibition percent: 0.07%

## Cc1nonc1COc1ccccc1C(=O)N1CCCC(Cc2nccn3cccc23)CC1 (centres unmarked) [BDH_32360822]
[1]
  Inhibition percent: 2.59%

## O=C(c1ccccc1CN1CCOCC1)N1C2CCC1CC(Cc1cncc3ccccc13)C2 (centres unmarked) [BDH_32360830]
[1]
  Inhibition percent: -0.42%

## CC1(C(=O)N2CCCC(Cc3cccc4ccncc34)CC2)CCN(C(=O)c2ccccc2)CC1 (centres unmarked) [BDH_32360998]
[2]
  Inhibition percent: -2.76%

## Cn1cc(C(=O)Nc2cccc(C(=O)N3CCCC(Cc4ccnc5ccccc45)CC3)c2)cn1 (centres unmarked) [BDH_32361062]
[1]
  Inhibition percent: -0.32%

## Cn1cc(C(=O)Nc2cccc(C(=O)N3CCCC(Cc4cnc5ccccc5c4)CC3)c2)cn1 (centres unmarked) [BDH_32361063]
[3]
  Inhibition percent: -0.14
